Test results from US8940798B2, “Compounds useful for treating and/or preventing disease-associated bone loss” (Centre National de al Recherche Scientifique (CNRS), priority 2011, dated 2015).

Columns and labels:
[1] = tested on: osteoclasts (OCs); experiment: Bone resorption assay, CTx concentration in medium of OCs on bovine bone slices; type: cell-based, mouse
Description: FIGS. 5A-5H: Inhibition of bone resorption by an inhibitor of Rac1 activation by Dock5. (FIG. 5A) Principle of the yeast exchange assay used to identify inhibitors of Dock5 exchange activity. Wild type Rac1 is fused to LexA DNA binding domain (LexA) and its effector Kinectin (Kin) to GAL4 activation domain (GAD). Expression of Dock5-DHR2 activates Rac1, which binds to kinectin, leading to the expression of his3 and then yeast […] for histidine. Inhibitors of Dock5-DHR2 revert Rac1 activation. (FIG. 5B) Growth curves of yeasts expressing Rac1 and Kinectin with (open triangles) and without (dots) Dock5-DHR2, in medium complemented (plain lines) or not (dotted lines) with histidine. (FIG. 5C) Structure of N-(3,5-dichlorophenyl)benzensulfonamide (C21). (FIG. 5D) Western blots showing total and GTPbound Rac1 (upper panels) and GFP and GFP-fused Dock5-DHR2 in extracts of 293T cells treated for 1 hour with the indicated concentrations of C21 in the presence of 1% DMSO. […] (FIG. 5F) Number of OCs (OC) after a 24-hour incubation with the indicated concentrations of C21, expressed as a % of DMSO control (0 μM C21). […] Well image was reconstituted and resorbed areas were measured using MetaMorph 7.0 software (Molecular Devices). […] After 2 days, CTx concentrations were measured using Crosslap (IDS Nordic Bioscience). […]

[2] = target: T1, Dock5-DHR2 (Mus musculus, UniProt B2RY04); experiment: Active (GTP-bound) Rac1 pull-down in 293T cells expressing GFP-fused Dock5-DHR2; type: cell-based; details: HEK293T cells, treated for 1 hour, 1% DMSO, western blot
T1 construct: Dock5 DHR2 domain (aminoacids E1119 to L1667) was cloned into pEGFP (Clontech) or myc tagged in pRs426Met (21); expressed in transfected cells; host or cells: HEK-293T cells
Description: FIGS. 5A-5H: Inhibition of bone resorption by an inhibitor of Rac1 activation by Dock5. (FIG. 5A) Principle of the yeast exchange assay used to identify inhibitors of Dock5 exchange activity. Wild type Rac1 is fused to LexA DNA binding domain (LexA) and its effector Kinectin (Kin) to GAL4 activation domain (GAD). Expression of Dock5-DHR2 activates Rac1, which binds to kinectin, leading to the expression of his3 and then yeast […] for histidine. Inhibitors of Dock5-DHR2 revert Rac1 activation. (FIG. 5B) Growth curves of yeasts expressing Rac1 and Kinectin with (open triangles) and without (dots) Dock5-DHR2, in medium complemented (plain lines) or not (dotted lines) with histidine. (FIG. 5C) Structure of N-(3,5-dichlorophenyl)benzensulfonamide (C21). […] (FIG. 5F) Number of OCs (OC) after a 24-hour incubation with the indicated concentrations of C21, expressed as a % of DMSO control (0 μM C21). […] To activate Rac1, OCs at day 4 of differentiation were starved overnight in the presence of 2% serum, stimulated with 100 ng/ml M-CSF or lifted and replated onto vitronectin-coated plates for 30 minutes prior to lysis, and active Rac1 levels were measured G-LISA kit according to manufacturer's instructions (Cytoskeleton).

T1 sequence (B2RY04 1119-1667): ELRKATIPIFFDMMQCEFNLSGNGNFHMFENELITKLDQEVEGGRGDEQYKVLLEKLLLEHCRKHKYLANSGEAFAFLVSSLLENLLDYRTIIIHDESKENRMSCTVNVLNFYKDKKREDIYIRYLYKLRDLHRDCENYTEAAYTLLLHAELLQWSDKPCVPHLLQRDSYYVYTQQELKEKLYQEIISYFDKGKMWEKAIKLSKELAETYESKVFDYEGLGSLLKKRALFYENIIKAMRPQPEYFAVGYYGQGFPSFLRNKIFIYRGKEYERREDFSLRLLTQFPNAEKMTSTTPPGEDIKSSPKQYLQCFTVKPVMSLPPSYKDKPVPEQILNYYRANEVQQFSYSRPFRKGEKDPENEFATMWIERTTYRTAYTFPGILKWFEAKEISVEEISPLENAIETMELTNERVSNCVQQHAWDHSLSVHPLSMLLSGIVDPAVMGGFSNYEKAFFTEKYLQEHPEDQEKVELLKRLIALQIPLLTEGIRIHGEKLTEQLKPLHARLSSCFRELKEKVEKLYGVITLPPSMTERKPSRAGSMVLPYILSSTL

With O=S(=O)(Nc1cc(Cl)cc(Cl)c1)c1ccccc1 [C21, N-(3,5-dichlorophenyl)benzenesulfonamide] the “Bone resorption, CTx concentration in the culture medium of OCs” value ([1]; 25 μM C21, OCs on bone) was “efficiently inhibits”, the “Bone resorption by OCs in vitro, CTx production per OC, dose response” value ([1]; dose response experiment) was “efficiently inhibits bone resorption” and the “Activation of Rac1 by Dock5-DHR2” value [2] was “efficiently inhibits”.
